The nature of data set [1]: H+/Na+ transport assay of bead-derived peptides (one-point).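 Also: relative to parent gramicidin A activity set to 1.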 Also noted: key: relative activity; mean of two control wells = 1.00. To be noted: bead-derived peptide solution, EYPC/EYPG LUVs. Format: biochemical. In short, it runs like this:
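H+/Na+ transport is monitored through pyranine fluorescence in freshly extruded LUVs after a 30-min room-temperature vortex with each library peptide at a single concentration. Signals are normalized to detergent (Triton X-100) and untreated controls.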

Data set [2] concerns P388 mouse leukemia cells. To be noted: 92 h. The method in brief:
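Peptide stocks diluted 250× in growth medium; P388 cells 1 × 10^4 cells/mL final; 37 °C, 5% CO2, 92 h. WST-1 + 1-methoxy PMS, 4 h, A415. Output: % viability.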

Data set [3] has as its system Streptococcus pyogenes SSI-9. As to the kind of experiment: Antibacterial activity assay of bead-derived peptides (three concentrations). Format: cell-based. Also noted: key: +++: inhibition by the 640-fold diluted peptide solution; ++: inhibition by the 160-fold diluted solution; +: inhibition by the 40-fold diluted solution; -: no inhibition. To be noted: S. pyogenes, bead-derived peptide solution, three concentrations. In short, it runs like this: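 Growth inhibition scored visually as precipitated bacteria after 37 °C, 18 h incubation. Streptococcus pyogenes SSI-9 inoculum of 2 × 10^5 CFU in Ca2+/Mg2+-adjusted Mueller Hinton broth plus 5% laked horse blood; peptides tested at three levels: stock, 4-fold and 16-fold DMSO dilutions.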

Where a SMILES comes first, the peptide text is derived from it. [ ]: non-standard residue; d: D form. The star is where a group is joined. NHCH2CH2OH = OCCN*; For = O=C*

For `CC(C)C[C@@H](NC(=O)[C@H](C)NC(=O)CNC(=O)[C@@H](NC=O)C(C)C)C(=O)N[C@@H](C)C(=O)N[C@@H](C(=O)N[C@H](C(=O)N[C@@H](C(=O)N[C@@H](Cc1c[nH]c2ccccc12)C(=O)N[C@H](CC(C)C)C(=O)N[C@@H](Cc1c[nH]c2ccccc12)C(=O)N[C@@H](C(=O)N[C@@H](Cc1c[nH]c2ccccc12)C(=O)N[C@H](CC(C)C)C(=O)N[C@@H](Cc1c[nH]c2ccccc12)C(=O)NCCO)C(C)C)[C@H](C)O)C(C)C)C(C)C` [compound 4279] (For-VGA[dL]A[dV]V[dT]W[dL]W[dV]W[dL]W-NHCH2CH2OH), the “H+/Na+ transport activity normalized against the value of 1 (1.00)” value (from here on “H+/Na+ transport activity normalized”) in data set [1] stood at 1.05. The molecule also gave a cell viability/% in data set [2] of 98.8%. In addition, the antibacterial activity result in data set [3] is listed as “-”.

With `CC(C)C[C@@H](NC(=O)[C@H](C)NC(=O)CNC(=O)[C@@H](NC=O)C(C)C)C(=O)N[C@@H](C)C(=O)N[C@H](CC(C)C)C(=O)N[C@H](C(=O)N[C@@H](C(=O)N[C@@H](Cc1c[nH]c2ccccc12)C(=O)N[C@H](CC(C)C)C(=O)N[C@@H](Cc1c[nH]c2ccccc12)C(=O)N[C@@H](C(=O)N[C@@H](Cc1c[nH]c2ccccc12)C(=O)N[C@@H](C(=O)N[C@@H](Cc1c[nH]c2ccccc12)C(=O)NCCO)C(C)C)[C@H](C)O)C(C)C)C(C)C` [compound 13273] (For-VGA[dL]A[dL]V[dV]W[dL]W[dT]W[dV]W-NHCH2CH2OH), the “H+/Na+ transport activity normalized” value in data set [1] is listed as 1.05. The same molecule yielded a cell viability/% in data set [2] of 100.0%. For the same molecule, in data set [3], the antibacterial activity entry was “-”.

For `CNC(=O)C[C@@H](NC(=O)[C@@H](NC(=O)[C@H](NC(=O)[C@H](C)NC(=O)[C@@H](CC(C)C)NC(=O)[C@H](C)NC(=O)CNC(=O)[C@@H](NC=O)C(C)C)C(C)C)C(C)C)C(=O)N[C@@H](Cc1c[nH]c2ccccc12)C(=O)N[C@@H](C(=O)N[C@@H](Cc1c[nH]c2ccccc12)C(=O)N[C@H](CC(C)C)C(=O)N[C@@H](Cc1c[nH]c2ccccc12)C(=O)N[C@@H](C(=O)N[C@@H](Cc1c[nH]c2ccccc12)C(=O)NCCO)C(C)C)C(C)C` [compound 8732] (For-VGA[dL]A[dV]V[dD](NHMe)W[dV]W[dL]W[dV]W-NHCH2CH2OH), the “H+/Na+ transport activity normalized” value in data set [1] is 1.11. Also, the cell viability/% in data set [2] stood at 72.4%. The antibacterial activity result in data set [3] is given as “-”.

In the case of `CC(C)C[C@@H](NC(=O)[C@H](C)NC(=O)[C@H](NC(=O)[C@H](C)NC(=O)CNC(=O)[C@@H](NC=O)C(C)C)C(C)C)C(=O)N[C@H](C(=O)N[C@@H](C(=O)N[C@@H](Cc1c[nH]c2ccccc12)C(=O)N[C@H](CC(C)C)C(=O)N[C@@H](Cc1c[nH]c2ccccc12)C(=O)N[C@@H](C(=O)N[C@@H](Cc1c[nH]c2ccccc12)C(=O)N[C@@H](C(=O)N[C@@H](Cc1c[nH]c2ccccc12)C(=O)NCCO)C(C)C)C(C)C)[C@H](C)O)C(C)C` [compound 8779] (For-VGA[dV]A[dL]V[dT]W[dL]W[dV]W[dV]W-NHCH2CH2OH), the “H+/Na+ transport activity normalized” value in data set [1] is listed as 1.07. Moreover, the cell viability/% in data set [2] is on record as 40.6%. Also, the antibacterial activity entry in data set [3] is on record as “-”.

On to `CNC(=O)C[C@@H](NC(=O)[C@H](Cc1c[nH]c2ccccc12)NC(=O)[C@@H](CC(C)C)NC(=O)[C@H](Cc1c[nH]c2ccccc12)NC(=O)[C@H](NC(=O)[C@H](Cc1c[nH]c2ccccc12)NC(=O)[C@@H](CC(C)C)NC(=O)[C@@H](NC(=O)[C@H](NC(=O)[C@H](C)NC(=O)[C@H](NC(=O)[C@H](C)NC(=O)CNC(=O)[C@@H](NC=O)C(C)C)C(C)C)C(C)C)C(C)C)C(C)C)C(=O)N[C@@H](Cc1c[nH]c2ccccc12)C(=O)NCCO` [compound 8400] (For-VGA[dV]A[dV]V[dL]W[dV]W[dL]W[dD](NHMe)W-NHCH2CH2OH), for which, in data set [1], the “H+/Na+ transport activity normalized” value is on record as 1.01. This molecule also displayed a cell viability/% in data set [2] of 34.4%. The antibacterial activity entry in data set [3] was “-”.
